Like-named read-outs stand apart in the source and are kept apart here.
Experiments:
Type in all cases: cell-based
[1] = system: HAP1 MTAP-deleted cell line; assay: viability assay for the MTAP-deleted cell line
[2] = system: PRMT5 (SDMA) in HAP1 MTAP-deleted cell line; assay: SDMA in-cell western assay, HAP1 MTAP-deleted cell line; conditions: for IC50 / IC90: Homo sapiens, SDMA in-cell western, HAP1 MTAP-deleted (MTAP-null) cell line; for Hap1 MTAP intact/deleted ratio: ratio of SDMA in-cell western IC50 in HAP1 MTAP-intact to IC50 in HAP1 MTAP-deleted cell line
Source text: (§1) HAP1 MTAP-intact is a cell line in which endogenous levels of MTAP are expressed, and HAP1 MTAP-deleted is an MTAP-null cell line.

[3] = system: PRMT5 (SDMA) in HAP1 MTAP-intact cell line; assay: SDMA in-cell western assay, HAP1 MTAP-intact cell line; conditions: Homo sapiens, HAP1 MTAP-intact cell line (endogenous MTAP), read-out: Hap 1 MTAP intact IC50
Source text: as §1

In the case of `C[C@@H]1CN(C(=O)C(=O)Nc2cncc3cn[nH]c23)[C@@H](c2ccc3scnc3c2)CN1C(=O)C1(C)CC1` (racemic) [Compound 61, 2-oxo-N-(1H-pyrazolo[4,3-c]pyridin-7-yl)-2-[rac-(2S,5R)-2-(1,3-benzothiazol-5-yl)-5-methyl-4-(1-methylcyclopropanecarbonyl)piperazin-1-yl]acetamide], the IC50 ([1]; Homo sapiens) is reported as 100 to 1000 nM, the IC50 [2] is reported as 5 to 50 nM and the IC90 [2] is reported as 75 to 125 nM. The “Hap1 MTAP intact/deleted ratio” value [2] was “C (an IC50 ratio of less than 15 fold)” and the IC50 [3] was over 50 nM.

`CC(C)C(=O)N1CCN(C(=O)C(=O)Nc2cnc(N)c3cn[nH]c23)[C@@H](c2ccccc2)C1` [Compound 126, (S)—N-(4-amino-1H-pyrazolo[4,3-c]pyridin-7-yl)-2-(4-isobutyryl-2-phenylpiperazin-1-yl)-2-oxoacetamide] showed an IC50 ([1]; Homo sapiens) of 100 to 1000 nM, an IC50 [2] of under 5 nM and an IC90 [2] of under 75 nM. The “Hap1 MTAP intact/deleted ratio” value [2] was “A (an IC50 ratio greater than or equal to 30 fold)” and the IC50 [3] was over 50 nM.

With `C[C@@H]1CN(C(=O)C(=O)Nc2cnc(N)c3cn[nH]c23)[C@@H](c2ccccc2)CN1C(=O)C(C)(C)C` [Compound 124, N-(4-amino-1H-pyrazolo[4,3-c]pyridin-7-yl)-2-((2S,5R)-5-methyl-2-phenyl-4-pivaloylpiperazin-1-yl)-2-oxoacetamide] the IC50 ([1]; Homo sapiens) was under 100 nM.

Work on `CC(C)OC(=O)N1C[C@@H](c2ccc(F)cc2)N(C(=O)C(=O)Nc2cnc(N)c(C3CC3)c2)C[C@H]1C` (stereo in doubt) [Compound 82, isopropyl 4-(2-((6-amino-5-cyclopropylpyridin-3-yl)amino)-2-oxoacetyl)-5-(4-fluorophenyl)-2-methylpiperazine-1-carboxylate] yielded an IC50 ([1]; Homo sapiens) of over 1000 nM.

With `C[C@@H]1CN(C(=O)C(=O)Nc2cnc(N)c(C3CC3)c2)[C@H](c2ccc(F)cc2)CN1C(=O)CC1CC1` [Compound 136] the IC50 ([1]; Homo sapiens) was over 1000 nM.

For `Cc1cc(NC(=O)C(=O)N2C[C@@H](C)N(C(=O)C(C)(C)C)C[C@@H]2c2ccc(F)cc2)cnc1N` [Compound 3, N-(6-amino-5-methylpyridin-3-yl)-2-((2S,5R)-2-(4-fluorophenyl)-5-methyl-4-pivaloylpiperazin-1-yl)-2-oxoacetamide], the IC50 ([1]; Homo sapiens) was under 100 nM.

For `C[C@@H]1CN(C(=O)C(=O)Nc2cncc3[nH]ncc23)C(c2ccc(F)cc2)CN1C(=O)C(C)(C)C` (stereo in doubt) [Compound 103, 2-[(2S,5R)-4-(2,2-dimethylpropanoyl)-2-(4-fluorophenyl)-5-methyl-piperazin-1-yl]-2-oxo-N-(1H-pyrazolo[3,4-c]pyridin-4-yl)acetamide], the IC50 ([1]; Homo sapiens) was over 1000 nM.

`CC(C)C(=O)N1C[C@H](c2ccccc2)N(C(=O)C(=O)Nc2cnc(N)c3c2cnn3C)C[C@H]1C` [Compound 165, N-(7-Amino-1-methyl-pyrazolo[3,4-c]pyridin-4-yl)-2-oxo-2-[(2S,5R)-5-methyl-4-(2-methylpropanoyl)-2-phenyl-piperazin-1-yl]acetamide] gave an IC50 ([1]; Homo sapiens) of under 100 nM.

For `COc1ncc(NC(=O)C(=O)N2C[C@H](C)N(C(=O)C3(C)CC3)C[C@H]2c2ccc(F)cc2)cc1C(N)=O` [Compound 5, 5-(2-((2R,5S)-2-(4-fluorophenyl)-5-methyl-4-(1-methylcyclopropanecarbonyl)piperazin-1-yl)-2-oxoacetamido)-2-methoxynicotinamide], the IC50 ([1]; Homo sapiens) was 100 to 1000 nM.

Work on `COc1ncc(NC(=O)C(=O)N2C[C@@H](C)N(C(=O)C3(C)CC3)C[C@@H]2c2ccc(F)cc2)cc1C(N)=O` [Compound 102, 5-(2-((2S,5R)-2-(4-fluorophenyl)-5-methyl-4-(1-methylcyclopropanecarbonyl)piperazin-1-yl)-2-oxoacetamido)-2-methoxynicotinamide] yielded an IC50 ([1]; Homo sapiens) of over 1000 nM.

Work on `CC(C)C(=O)N1C[C@H](c2ccccc2)N(C(=O)C(=O)Nc2cnc(N)c3cn[nH]c23)C[C@H]1C` [Compound 50] yielded an IC50 ([1]; Homo sapiens) of under 100 nM.

Work on `Cc1cc(NC(=O)C(=O)N2C[C@@H](C)N(C(=O)C(C)C)C[C@@H]2c2ccc(F)cc2)cnc1N` (racemic) [Compound 157, rac-N-(6-amino-5-methylpyridin-3-yl)-2-(2-(4-fluorophenyl)-4-isobutyryl-5-methylpiperazin-1-yl)-2-oxoacetamide] yielded an IC50 ([1]; Homo sapiens) of 100 to 1000 nM.

In the case of `Cc1cc(NC(=O)C(=O)N2C[C@@H](C)N(C(=O)C3(C(F)(F)F)CC3)C[C@@H]2c2ccc(F)cc2)cnc1N` [Compound 27], the IC50 ([1]; Homo sapiens) is reported as under 100 nM.

Work on `CC(C)CN1C[C@H](c2ccc(F)cc2)N(C(=O)C(=O)Nc2cnc(N)c(C3CC3)c2)C[C@@H]1C` (single isomer, unassigned) [Compound 48] yielded an IC50 ([1]; Homo sapiens) of over 1000 nM.

In the case of `CC(=O)N1C[C@H](c2ccccc2)N(C(=O)C(=O)Nc2cnc(N)c3c2cnn3C)C[C@H]1C` [Compound 168, N-(7-Amino-1-methyl-pyrazolo[3,4-c]pyridin-4-yl)-2-oxo-2-[(2S,5R)-4-acetyl-5-methyl-2-phenyl-piperazin-1-yl]acetamide], the IC50 ([1]; Homo sapiens) is reported as under 100 nM.

`CC(C)CN1C[C@@H](c2ccc(F)cc2)N(C(=O)C(=O)Nc2cnc(N)c(C3CC3)c2)C[C@@H]1C` (single isomer, unassigned) [Compound 26] showed an IC50 ([1]; Homo sapiens) of over 1000 nM.

Compound `Cc1cc(NC(=O)C(=O)N2C[C@H](C)N(C(=O)C3(C(F)(F)F)CC3)C[C@H]2c2ccc(F)cc2)cnc1N` [Compound 64] has an IC50 ([1]; Homo sapiens) of over 1000 nM.

With `Cc1cc(NC(=O)C(=O)N2C[C@@H](C)N(C(=O)C3(C)CC3)C[C@@H]2c2ccc(F)cc2)cnc1N` (stereo in doubt) [Compound 108, N-(6-amino-5-methylpyridin-3-yl)-2-(2-(4-fluorophenyl)-5-methyl-4-(1-methylcyclopropanecarbonyl)piperazin-1-yl)-2-oxoacetamide] the IC50 [1] was under 100 nM.

In the case of `Cc1cc(NC(=O)C(=O)N2C[C@@H](C)N(C(=O)C(C)C)C[C@@H]2c2ccc(F)cc2)cnc1N` (relative stereo) [Compound 20, N-(6-amino-5-methyl-3-pyridyl)-2-[(2S,5R)-2-(4-fluorophenyl)-5-methyl-4-(2-methylpropanoyl)piperazin-1-yl]-2-oxo-acetamide], the IC50 ([1]; Homo sapiens) is reported as 100 to 1000 nM.

Work on `CC(C)OC(=O)N1C[C@H](c2ccc(F)cc2)N(C(=O)C(=O)Nc2cnc(N)c(C3CC3)c2)C[C@@H]1C` (stereo in doubt) [Compound 95, isopropyl 4-(2-((6-amino-5-cyclopropylpyridin-3-yl)amino)-2-oxoacetyl)-5-(4-fluorophenyl)-2-methylpiperazine-1-carboxylate] yielded an IC50 ([1]; Homo sapiens) of over 1000 nM.

For `C[C@@H]1CN(C(=O)C(=O)Nc2cnc(N)c(C3CC3)c2)[C@@H](c2ccccc2)CN1C(=O)C1(C(F)(F)F)CC1` [Compound 51, N-(6-amino-5-cyclopropylpyridin-3-yl)-2-((2S,5R)-5-methyl-2-phenyl-4-(1-(trifluoromethyl)cyclopropanecarbonyl)piperazin-1-yl)-2-oxoacetamide], the IC50 ([1]; Homo sapiens) was under 100 nM.

`C[C@@H]1CN(C(=O)C(=O)Nc2cnc(N)c3c2cnn3C)[C@@H](c2ccccc2)CN1C(=O)C1(C(F)(F)F)CC1` [Compound 166, N-(7-Amino-1-methyl-pyrazolo[3,4-c]pyridin-4-yl)-2-oxo-2-[(2S,5R)-5-methyl-2-phenyl-4-[1-(trifluoromethyl)cyclopropanecarbonyl]piperazin-1-yl]acetamide] was tested, and the IC50 ([1]; Homo sapiens) was under 100 nM.

For `Cc1cc(NC(=O)C(=O)N2C[C@@H](C)N(C(=O)C3(C)CC3)C[C@@H]2c2ccc(F)cc2)cnc1N` [Compound 104, N-(6-amino-5-methylpyridin-3-yl)-2-((2S,5R)-2-(4-fluorophenyl)-5-methyl-4-(1-methylcyclopropanecarbonyl)piperazin-1-yl)-2-oxoacetamide], the IC50 ([1]; Homo sapiens) was under 100 nM.

Work on `C[C@@H]1CN(C(=O)C(=O)Nc2cnc(N)c3cn[nH]c23)[C@@H](c2ccccc2)CN1C(=O)C1(C(F)(F)F)CC1` [Compound 155] yielded an IC50 ([1]; Homo sapiens) of under 100 nM.

`CC(C)C(=O)N1C[C@H](c2ccc(F)cc2)N(C(=O)C(=O)Nc2cnc(N)c(C3CC3)c2)C[C@H]1C` [Compound 19] was tested, and the “Hap1 MTAP intact/deleted ratio” value [2] was “C (an IC50 ratio of less than 15 fold)”.

With `C[C@@H]1CN(C(=O)C(=O)Nc2cnc(N)c3cn[nH]c23)[C@@H](c2ccccc2)CN1C(=O)C1(C)CC1` (racemic) [Compound 161, N-(4-Amino-1H-pyrazolo[4,3-c]pyridin-7-yl)-2-oxo-2-[rac-(2S,5R)-5-methyl-4-(1-methylcyclopropanecarbonyl)-2-phenyl-piperazin-1-yl]acetamide] the IC50 ([1]; Homo sapiens) was under 100 nM.

Work on `C[C@H]1CN(C(=O)C(=O)Nc2cnc(N)c(C3CC3)c2)[C@@H](c2ccc(F)cc2)CN1C(=O)CC1CC1` [Compound 56] yielded an IC50 ([1]; Homo sapiens) of over 1000 nM.

`Cc1cc(NC(=O)C(=O)N2C[C@@H](C)N(C(=O)C(C)(C)C)C[C@@H]2c2ccc(F)cc2)cnc1N` (stereo in doubt) [Compound 106, N-(6-amino-5-methylpyridin-3-yl)-2-(2-(4-fluorophenyl)-5-methyl-4-pivaloylpiperazin-1-yl)-2-oxoacetamide] gave an IC50 [1] of under 100 nM.

For `C[C@@H]1CN(C(=O)C(=O)Nc2cnc(N)c(C3CC3)c2)[C@@H](c2ccc3scnc3c2)CN1C(=O)C1(C(F)(F)F)CC1` [Compound 141, N-(6-amino-5-cyclopropyl-3-pyridyl)-2-[(2S,5R)-2-(1,3-benzothiazol-5-yl)-5-methyl-4-[1-(trifluoromethyl)cyclopropanecarbonyl]piperazin-1-yl]-2-oxo-acetamide], the IC50 ([1]; Homo sapiens) was under 100 nM.

With `Cc1cc(NC(=O)C(=O)N2CC(C)N(C(=O)C(C)C)C[C@@H]2c2ccc(F)c(F)c2)cnc1N` (stereo in doubt) [Compound 23, N-(6-amino-5-methylpyridin-3-yl)-2-((2S,5R)-2-(3,4-difluorophenyl)-4-isobutyryl-5-methylpiperazin-1-yl)-2-oxoacetamide] the IC50 ([1]; Homo sapiens) was over 1000 nM.

Source: patent publication US20250282749A1 (Tango Therapeutics, Inc., priority 2022, published 2025)
